1 molecule from patent US8293462B2, “Method of preserving early mammalian embryos by vitrification” (Central Institute for Experimental Animals, priority 2005, dated 2012) can be followed below.

In this test the test system is marmoset ES cells, cell line No. 40. The test can be described thus: Survival of ES cell clumps after thaw, cell line No. 40. The class given is cell-based, common marmoset (Callithrix jacchus). The settings on record: FIG. 1. The source says: As marmoset ES cells, two cell lines, i.e., No. 40 and No. 20, which were established by the Central Institute for Experimental Animals (Japan), were employed (Sasaki E. et al., 2005, Establishment of Novel Embryonic Stem Cell Lines Derived from the Common Marmoset (Callithrix jacchus), Stem Cells. (in press)). The cell clumps separated via trypsin treatment were recovered with an egg-sampling pipette and used in the preservation experiment.
In the method of preservation by vitrification according to the present invention, […] PB1, 10% propylene glycol, 30% ethylene glycol, 20% Percoll®(t, and 0.3 M sucrose were used. In thaw, the SPB1 solution comprising PB1 and 0.3 M sucrose was used.
In preservation of the control embryos by vitrification (Fujioka T. et al., Int. J. Dev. Biol. 48: 1149-1154), a DAP213 solution comprising PB1, 2 mol of DMSO, 1 mol of acetamide, and 3 mol of propylene glycol was used. In slow freezing (Reubinoff B. E. et al., Human Reprod. Vol. 16, No. 10, 2187-2194), the SF solution comprising 10% DMSO in FCS was used.
Subsequently, the cell clumps were introduced into a preservation tube (Nunc 375353) with 5 μl of P10, followed by cooling at 0° C. for 1 minute. Thereafter, 95 μl of PEPeS, which had been cooled to 0° C., was introduced into the tube. […]

Consider `CC(O)CO` (centres unmarked) [propylene glycol], for which the “survival rate after thaw compared with control that had not been preserved” value (pretreatment solution PB1 + 5% propylene glycol, 4 days after initiation of culture) was “significantly lower” and the “survival rate after thaw compared with control that had not been preserved” value (pretreatment solution PB1 + 15% propylene glycol, 4 days of culture) was “did not differ from the control embryos”.
